# Test results reported in patent US10178867B2, “Treating microbe contamination in water with THP salts and polymeric biopenetrants” (priority 2004, dated 2019).
# Tests used:
# GHB [1] = assay: Biofilm test, seawater (SMOW), GHB; assay type: cell-based, general heterotrophic bacteria; settings: after 75 ppm ai THPS dosed for 3 hours
# Source text: (§1) Biofilm Tests: Seawater (SMOW)
# GHB [2] = assay: Quantitative suspension test in de inking water, GHB; assay type: cell-based, general heterotrophic bacteria; settings: 75 ppm ai THPS, 3 hour contact
# Source text: (§2) Quantitative Suspension Test in De Inking Water
# GHB [3] = assay: Biofilm (sessile) test, freshwater (WHO); assay type: cell-based, general heterotrophic bacteria; settings: after 75 ppm ai THPS dosed for 3 hours
# Source text: Biofilm (Sessile) Tests: Freshwater (WHO)
# SRB [4] = assay: Quantitative suspension test in de inking water, SRB; assay type: cell-based, sulphate reducing bacteria; settings: 75 ppm ai THPS, 3 hour contact
# Source text: as §2
# SRB [5] = assay: Biofilm test, seawater (SMOW), SRB; assay type: cell-based, sulphate reducing bacteria; settings: after 75 ppm ai THPS dosed for 3 hours
# Source text: as §1
# [6] = tested on: General Heterotrophic Bacteria; assay: Quantitative suspension test (planktonic bacteria) in WHO water; assay type: cell-based; settings: 50 ppm ai THPS
# Source text: Quantitative Suspension Test (Planktonic Bacteria) in WHO Water
substance,measurement,setting,value
tetrakis(hydroxymethyl)phosphonium sulphate [Unformulated THPS],"Viable bacteria, GHB",GHB [1],1 × 10^2
same,"Log reduction values, GHB",GHB [2],3.8
same,"Viable bacteria, GHB",GHB [3],1 × 10^5
same,"Log reduction values, SRB",SRB [4],3
same,"Viable bacteria, SRB",SRB [5],1 × 10^4
same,Log Reduction of General Heterotrophic Bacteria,[6]; 1 hour contact,1
same,Log Reduction of General Heterotrophic Bacteria,[6]; 3 hour contact,5.8
